Results: ChEMBL document CHEMBL1125340, “Inhibition of hog liver folylpolyglutamate synthetase by 5-substituted 5,8-dideaza analogues of folic acid bearing a terminal L-ornithine residue” (J Med Chem, 1992)

tested on: Folylpolyglutamate synthase (Sus scrofa); experiment: The ratio of Kinetic constant Vmax / Binding constant Km at homogenous Hog Liver Folyl polyglutamate Synthetase (FPGS).

Ratio | SMILES
102 | NCCCC(NC(=O)c1ccc(CNc2ccc3nc(N)nc(O)c3c2Cl)cc1)C(=O)O (centres undefined)
121 | NCCCC(NC(=O)c1ccc(NCc2ccc3nc(N)nc(O)c3c2C(F)(F)F)cc1)C(=O)O (centres undefined)
118 | NCCCC(NC(=O)c1ccc(CNc2ccc3nc(N)nc(O)c3c2C(F)(F)F)cc1)C(=O)O (centres undefined)
64 | NCCCC(NC(=O)c1ccc(CNc2ccc3nc(N)nc(O)c3c2F)cc1)C(=O)O (centres undefined)
